# Test results reported in EP4610267A1, “CYCLIC DINUCLEOTIDES AND CONJUGATES THEREOF WITH ANTIBODIES” (priority 2024, dated 2025).
# Columns and labels:
# STING REF = target: T1, STING REF (Homo sapiens, UniProt Q86WV6); test: 293T STING digitonin reporter assay (REF haplotype); assay type: cell-based; conditions: digitonin permeabilised 293T reporter cells
# T1 construct: expressed in transfected cells
# Procedure: Digitonin Assay with 293T Reporter Cells. The generation of 293T reporter cells stably expressing different STING protein haplotypes (WT, HAQ, REF, AQ, or Q) was described previously (Novotna et al, J. Med. Chem. 2019,62, 10676). The cells were seeded at a density of 250 000 cells per cm^2 into 96 well white poly(D-lysine) coated plates in 100 µL of DMEM with high glucose supplemented with 10% heat inactivated FBS. Next day, the medium was removed, and compounds were added in 3-fold serial dilutions in a digitonin buffer containing 50 mM HEPES (pH 7.0), 100 mM KCl, 3 mM MgClz, 0.1 mM DTT, 85 mM sucrose, 0.2% (w/w) BSA, 1 mM ATP, 0.1 mM GTP, and 10 µg/mL digitonin A. After 30 min incubation at 37 °C with 5% CO2, the digitonin buffer was removed, cells were washed once with 100 µL of the cultivation medium, and 100 µL of fresh medium was added to each well. The plates with cells were further incubated for 5 h at 37 °C with 5% CO2. Thereafter, 50 µL of the medium was removed, and 30 µL of Bright-Glo Luciferase Assay System reagent was added to each well. […] Nonlinear regression curve fit with standard slope was used for EC50 value calculations. The EC50 value represents CDN concentration that gives half-maximal response of firefly luciferase in the 293T reporter assay.
# AH1+ CD8+ T cells = test: Induction of tumor specific AH1+ CD8 T cells in CT26 model (flow cytometry); assay type: in vivo, BALB/c mice; conditions: blood collected on day 14, i.t. treatment
# Source text: The induction of tumor specific AH1+ CD8 T cells was monitored in response to Compound 2.2 treatment. Blood immune cells were collected on day 14 and red blood cells were lysed using red blood cell lysis buffer. Immune cells were immunophenotyped using viability dye (Zombie NIR Fixable Viability Kit, BioLegend) and monoclonal antibodies: BUV395 rat anti-mouse CD19, BUV395 hamster anti-mouse CD49b, APC hamster anti-mouse CD3, BV605 rat anti-mouse CD4, BV510 rat anti-mouse CD8, (all BD Biosciences). Specific staining using MHC-I dextramer: PE labelled AH1 peptide ([…], Immudex) was performed according to the manufacturer's recommendation. Specific and control samples of unstained cells, positive control for dead cells (cells in PBS incubated for 10 min at 65 °C and further stained with a live/dead marker), fluorescence minus one (FMO) and isotype controls (ISO) were prepared. Samples were measured immediately without a fixation step in a single tube format using BD LSRFortessa flow cytometer (BD Biosciences) in 250 µl of FC buffer (PBS containing 5% FBS). Data was acquired using FACS Diva software (version 8.0.1, BD Biosciences). Debris was excluded by forward and side scatter gating followed by doublet and dead cell exclusion. […] The data were analyzed using FlowJo software (version 10, BD Biosciences) and expressed as a frequency (%) of parent population, i.e. CD3+ T cells.
# [1] = test system: Her2 expressing HCC1954 breast tumor xenograft; test: Her2 expressing HCC1954 breast tumor xenograft model; assay type: in vivo, SCID-beige mice; conditions: single i.v. dose 1.7 mg/kg (40x higher payload dose than in 2.5 mg/kg mAb3-3.3) (Fig. 8)
# Procedure: For in vivo testing in the Her2 expressing HCC1954 breast cancer xenograft mouse model, female SCID-beige mice at 8 to 12 weeks of age (purchased from Charles River Lab) were used for implantation. HCC1954 cells (obtained from ATCC) were cultured in RPMI medium supplemented with 10% fetal bovine serum at 37°C in a humidified incubator with 5% CO2 On the day of implantation, 1 × 10^7 HCC1954 cells were re-suspended in 100µL RPMI1640 serum free media containing 50% Matrigel and implanted subcutaneously in the right flank. After implant, tumors were measured by caliper and mice were weighed two times per week once tumors were palpable. Tumor volumes were calculated from caliper measurements using formula (L × W^2)/2. Animals were pair matched when tumor reached volume 100 - 150 mm^3 (designated as day 1). Two i.v. injections were performed on day 1 and 8 (D1 and D8) of 5mg/kg of anti-Her2 mAbl-3.4 (DAR 3.9), 5mg/kg mAbl-3.11 (DAR 3.9), 5mg/kg isotype mAb-3.4 (DAR 3.9), 5mg/kg anti-Her2 mAb1 or PBS vehicle. […]
# Compound 3.13 was conjugated to engineered light chain C110 and heavy chain C375 of anti-Her2 mAb (mAb3) as described above. […] After implant, tumors were measured by caliper and mice were weighed two times per week once tumors were palpable. Tumors were measured in two dimensions and tumor volumes were calculated from caliper measurements using formula (L × W^2)/2. […]
# T1 sequence (Q86WV6 whole entry): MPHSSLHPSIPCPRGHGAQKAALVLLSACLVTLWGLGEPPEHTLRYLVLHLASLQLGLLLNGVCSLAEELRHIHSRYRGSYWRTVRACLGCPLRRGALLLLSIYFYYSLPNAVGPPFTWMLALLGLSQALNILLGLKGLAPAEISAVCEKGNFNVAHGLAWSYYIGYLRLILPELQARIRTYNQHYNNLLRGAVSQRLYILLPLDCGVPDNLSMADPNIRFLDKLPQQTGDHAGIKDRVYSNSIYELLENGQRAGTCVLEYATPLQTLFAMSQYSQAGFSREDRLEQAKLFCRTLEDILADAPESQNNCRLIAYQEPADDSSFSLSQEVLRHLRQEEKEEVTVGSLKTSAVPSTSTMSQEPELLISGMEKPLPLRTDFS
compound,measurement,setting,value
"Nc1ncnc2c1ncn2[C@@H]1O[C@@H]2OCP(=O)(S)O[C@@H]3[C@H](F)[C@@H](COP(=O)(S)OC[C@H]2[C@H]1F)O[C@H]3n1cnc2c(=O)[nH]cnc21 (single isomer, unassigned) [Compound 2.2]",EC50,STING REF,0.05 µM
same,frequency of tumor specific CD8 T cell recognizing AH1 peptide compared to the vehicle arm,AH1+ CD8+ T cells,statistically significantly increased frequency
same,effect on HCC1954 tumors,[1],only triggered tumor growth inhibition
